What was measured:
ERK2 (Q105A) = ERK2 (Q105A) (Homo sapiens, UniProt P28482, Q105A); experiment: Coupled spectrophotometric kinase assay, ERK2 (Q105A); format: biochemical
ERK2 (wild-type) = ERK2 (wild-type) (Homo sapiens, UniProt P28482); experiment: Coupled spectrophotometric kinase assay, ERK2 (wild-type); format: biochemical
JNK3 (M146A) = JNK3 (M146A) (Homo sapiens, UniProt P53779, M146A); experiment: Coupled spectrophotometric kinase assay, JNK3 (M146A)
ERK2 (Q105T) = ERK2 (Q105T) (Homo sapiens, UniProt P28482, Q105T); experiment: Coupled spectrophotometric kinase assay, ERK2 (Q105T); format: biochemical
p38 = p38 (Homo sapiens, UniProt Q16539); experiment: Coupled spectrophotometric kinase assay, p38; format: biochemical; settings: read-out: KM for ATP
JNK3 (M146A/D150G) = JNK3 (M146A/D150G) (Homo sapiens, UniProt P53779, D150G/M146A); experiment: Coupled spectrophotometric kinase assay, JNK3 (M146A/D150G)
JNK3 (wild-type) = JNK3 (wild-type) (Homo sapiens, UniProt P53779); experiment: Coupled spectrophotometric kinase assay, JNK3 (wild-type)
[1] = 100 μM ATP, 200 μM EGF receptor peptide, read-out: Inhibition constants, Ki

Chain of JNK3 (M146A/D150G) (P53779 40-402 M146A/D150G): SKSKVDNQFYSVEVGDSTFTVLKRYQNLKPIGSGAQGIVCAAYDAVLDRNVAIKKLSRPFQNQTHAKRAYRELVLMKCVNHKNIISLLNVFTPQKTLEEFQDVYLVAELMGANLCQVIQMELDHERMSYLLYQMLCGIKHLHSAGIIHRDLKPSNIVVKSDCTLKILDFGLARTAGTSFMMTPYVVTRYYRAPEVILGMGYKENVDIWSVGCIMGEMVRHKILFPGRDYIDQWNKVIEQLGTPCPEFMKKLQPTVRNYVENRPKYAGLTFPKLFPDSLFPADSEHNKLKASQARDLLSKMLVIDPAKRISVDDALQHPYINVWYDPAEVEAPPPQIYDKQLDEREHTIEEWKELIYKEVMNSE
Chain of JNK3 (wild-type) (P53779 40-402): as the sequence (P53779 40-402 M146A/D150G) above, with A107M, G111D counted along it
Chain of JNK3 (M146A) (P53779 40-402 M146A): as the sequence (P53779 40-402 M146A/D150G) above, with G111D counted along it
Chain of p38 (Q16539 whole entry): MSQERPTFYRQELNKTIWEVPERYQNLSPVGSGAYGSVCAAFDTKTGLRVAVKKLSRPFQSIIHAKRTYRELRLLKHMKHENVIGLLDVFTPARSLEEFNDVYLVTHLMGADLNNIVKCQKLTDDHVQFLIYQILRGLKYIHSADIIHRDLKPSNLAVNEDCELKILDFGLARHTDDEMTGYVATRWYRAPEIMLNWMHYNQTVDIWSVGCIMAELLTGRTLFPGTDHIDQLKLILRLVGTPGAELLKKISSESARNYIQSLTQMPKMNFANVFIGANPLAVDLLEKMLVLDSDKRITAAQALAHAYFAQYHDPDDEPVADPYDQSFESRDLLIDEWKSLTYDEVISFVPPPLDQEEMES

Row | Km (ERK2 (Q105A); read-out: KM for ATP) | Km (ERK2 (wild-type); read-out: KM for ATP) | Km (JNK3 (M146A); read-out: KM for ATP, JNK3 (M146A)) | Km (ERK2 (Q105T); read-out: KM for ATP) | Km (p38) | Km (JNK3 (M146A/D150G); read-out: KM for ATP, JNK3 (M146A/D150G)) | Km (JNK3 (wild-type); read-out: KM for ATP, JNK3 (wild-type)) | SMILES | Ki (ERK2 (Q105A); [1]) | Ki (ERK2 (wild-type); [1]) | increase in sensitivity versus wild-type JNK3 (JNK3 (M146A); JNK3 M146A mutant) | Ki (ERK2 (Q105T); [1]) | sensitivity of the JNK3 double mutant (in words) (JNK3 (M146A/D150G); JNK3 (M146A/D150G) compared with wild-type and single mutant) | sensitivity of wild-type JNK3 (in words) (JNK3 (wild-type); wild-type JNK3)
1 | 51 ± 6 µM | 76 ± 14 µM | 75 µM | 33 ± 4 µM | 260 ± 30 µM | 311 µM | 15 µM | Nc1ncnc2c1ncn2[C@@H]1O[C@H](COP(=O)(O)OP(=O)(O)OP(=O)(O)O)[C@@H](O)[C@H]1O [ATP] | – | – | – | – | – | –
2 | – | – | – | – | – | – | – | Oc1ccc(-c2nc(-c3ccc(F)cc3)c(-c3ccncc3)[nH]2)cc1 [SB202190, reference compound] | 0.81 ± 0.19 nM | > 20000 nM | ~4,000 fold | 6.8 ± 0.6 nM | considerably more sensitive than wild-type, but significantly less than observed for the single mutant | moderately sensitive

Reference: patent publication US6849716B1, “Methods for designing inhibitors of serine/threonine kinases and tyrosine kinases” (Vertex Pharmaceuticals Incorporated, priority 1998, dated 2005)
